Assay results from patent US20060069132A1, “Azolecarboxamide herbicides” (priority 2004, published 2006).

Experiments:
barnyardgrass [1] = experiment: Test B pre-/postemergence herbicide test; type: in vivo, Echinochloa crus-galli; conditions: for Barnyardgrass plant response rating (0 to 100 scale): 0 = no effect, 100 = complete control; for Barnyardgrass plant response rating (0 to 100 scale) / Plant response rating, Barnyardgrass: preemergence; for Plant response rating, Barnyardgrass: visual rating 0-100, 0 no effect, 100 complete control; for Barnyardgrass plant response rating: postemergence, visual rating, scale 0 (no effect) to 100 (complete control)
How it was run: (§1)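 Seeds were planted and treated preemergence with compounds formulated in a non-phytotoxic solvent mixture containing surfactant, while plants at the 1- to 4-leaf stage (2 to 18 cm) received postemergence sprays. Flooded paddy plants were grown to the 2-leaf stage. After 13 to 15 days in a greenhouse, injury was visually rated 0–100 against untreated controls.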

Surinam grass = experiment: Test B pre-/postemergence herbicide test; type: in vivo, Urochloa decumbens; conditions: for Surinam Grass plant response rating (0 to 100 scale): 0 = no effect, 100 = complete control; for Surinam Grass plant response rating (0 to 100 scale) / Plant response rating, Surinam Grass: preemergence; for Plant response rating, Surinam Grass: visual rating 0-100, 0 no effect, 100 complete control; for Surinam Grass plant response rating: postemergence, visual rating, scale 0 (no effect) to 100 (complete control)
How it was run: (§2)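 Plants compared with untreated controls 13–15 days post-treatment and given a visual 0–100 injury score. Applications: preemergence to seeds; postemergence at 1- to 4-leaf (2–18 cm); paddy species flooded, 2-leaf stage. Vehicle non-phytotoxic, surfactant included.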

cocklebur = experiment: Test B pre-/postemergence herbicide test; type: in vivo, Xanthium strumarium; conditions: for Cocklebur plant response rating (0 to 100 scale): 0 = no effect, 100 = complete control; for Cocklebur plant response rating (0 to 100 scale) / Plant response rating, Cocklebur: preemergence; for Plant response rating, Cocklebur: visual rating 0-100, 0 no effect, 100 complete control; for Cocklebur plant response rating: postemergence, visual rating, scale 0 (no effect) to 100 (complete control)
How it was run: as §1

corn = experiment: Test B pre-/postemergence herbicide test; type: in vivo, Zea mays; conditions: for Corn plant response rating (0 to 100 scale): 0 = no effect, 100 = complete control; for Corn plant response rating (0 to 100 scale) / Plant response rating, Corn: preemergence; for Plant response rating, Corn: visual rating 0-100, 0 no effect, 100 complete control; for Corn plant response rating: postemergence, visual rating, scale 0 (no effect) to 100 (complete control)
How it was run: as §2

large crabgrass = experiment: Test B pre-/postemergence herbicide test; type: in vivo, Digitaria sanguinalis; conditions: for Crabgrass, Large plant response rating (0 to 100 scale): 0 = no effect, 100 = complete control; for Crabgrass, Large plant response rating (0 to 100 scale) / Plant response rating, Crabgrass, Large: preemergence; for Plant response rating, Crabgrass, Large: visual rating 0-100, 0 no effect, 100 complete control; for Crabgrass, Large plant response rating: postemergence, visual rating, scale 0 (no effect) to 100 (complete control)
How it was run: as §2

giant foxtail = experiment: Test B pre-/postemergence herbicide test; type: in vivo, Setaria faberi; conditions: for Foxtail, Giant plant response rating (0 to 100 scale): 0 = no effect, 100 = complete control; for Foxtail, Giant plant response rating (0 to 100 scale) / Plant response rating, Foxtail, Giant: preemergence; for Plant response rating, Foxtail, Giant: visual rating 0-100, 0 no effect, 100 complete control; for Foxtail, Giant plant response rating: postemergence, visual rating, scale 0 (no effect) to 100 (complete control)
How it was run: as §2

lambsquarters = experiment: Test B pre-/postemergence herbicide test; type: in vivo, Chenopodium album; conditions: for Lambsquarters plant response rating (0 to 100 scale): 0 = no effect, 100 = complete control; for Lambsquarters plant response rating (0 to 100 scale) / Plant response rating, Lambsquarters: preemergence; for Plant response rating, Lambsquarters: visual rating 0-100, 0 no effect, 100 complete control; for Lambsquarters plant response rating: postemergence, visual rating, scale 0 (no effect) to 100 (complete control)
How it was run: as §2

morningglory = experiment: Test B pre-/postemergence herbicide test; type: in vivo, Ipomoea coccinea; conditions: for Morningglory plant response rating (0 to 100 scale): 0 = no effect, 100 = complete control; for Morningglory plant response rating (0 to 100 scale) / Plant response rating, Morningglory: preemergence; for Plant response rating, Morningglory: visual rating 0-100, 0 no effect, 100 complete control; for Morningglory plant response rating: postemergence, visual rating, scale 0 (no effect) to 100 (complete control)
How it was run: as §1

pigweed = experiment: Test B pre-/postemergence herbicide test; type: in vivo, Amaranthus retroflexus; conditions: for Pigweed plant response rating (0 to 100 scale): 0 = no effect, 100 = complete control; for Pigweed plant response rating (0 to 100 scale) / Plant response rating, Pigweed: preemergence; for Plant response rating, Pigweed: visual rating 0-100, 0 no effect, 100 complete control; for Pigweed plant response rating: postemergence, visual rating, scale 0 (no effect) to 100 (complete control)
How it was run: as §2

blackgrass = experiment: Test B postemergence herbicide test; type: in vivo, Alopecurus myosuroides; conditions: postemergence, visual rating, scale 0 (no effect) to 100 (complete control)
How it was run: (§3)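 Postemergence plants were sprayed with formulated test chemicals at 2 to 18 cm height (1- to 4-leaf stage); paddy species were grown to the 2-leaf stage. After 13 to 15 days in a greenhouse, injury was rated visually against untreated controls on a 0–100 scale (0 = no effect, 100 = complete control).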

wheat = experiment: Test B postemergence herbicide test; type: in vivo, Triticum aestivum; design: key to Wheat plant response rating: 0 = no effect, 100 = complete control; conditions: postemergence, visual rating, scale 0 (no effect) to 100 (complete control)
How it was run: (§4)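 Each value is a visual 0–100 response rating taken against controls 13 to 15 days after treatment in the greenhouse. Plants received formulated chemical postemergence at the 1- to 4-leaf stage or, in flooded paddy, at the 2-leaf stage.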

wild oat = experiment: Test B postemergence herbicide test; type: in vivo, Avena fatua; conditions: postemergence, visual rating, scale 0 (no effect) to 100 (complete control)
How it was run: as §4

rice = experiment: Test B flooded paddy test; type: in vivo, Oryza sativa; conditions: 1000 g ai/ha, visual rating, scale 0 to 100 (0 no effect, 100 complete control), 13 to 15 days
How it was run: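 Formulated test chemicals went onto postemergence plants measuring 2 to 18 cm, at one to four leaves. For the paddy assay, species had reached two leaves. Scoring took place 13–15 days later by eye, relative to untreated plants, using 0 for no effect up to 100 for full control.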

[2] = system: small flower umbrella sedge; experiment: Test B flooded paddy test; type: in vivo, Cyperus difformis; conditions: 1000 g ai/ha, visual rating, scale 0 to 100 (0 no effect, 100 complete control), 13 to 15 days
How it was run: as §3

ducksalad = experiment: Test B flooded paddy test; type: in vivo, Heteranthera limosa; conditions: 1000 g ai/ha, visual rating, scale 0 to 100 (0 no effect, 100 complete control), 13 to 15 days
How it was run: as §3

barnyardgrass [3] = experiment: Test B flooded paddy test; type: in vivo, Echinochloa crus-galli; conditions: 1000 g ai/ha, visual rating, scale 0 to 100 (0 no effect, 100 complete control), 13 to 15 days
How it was run: as §3

CCNC(=O)c1cccc(NC(=O)c2sc(C(C)(C)C)nc2C)c1 [Compound 198]
Barnyardgrass plant response rating (0 to 100 scale) (barnyardgrass [1]; 125 g ai/ha): 40
Plant response rating, Barnyardgrass (barnyardgrass [1]; 500 g ai/ha): 90
Barnyardgrass plant response rating (barnyardgrass [1]; 125 g ai/ha): 0
Barnyardgrass plant response rating (barnyardgrass [1]; 500 g ai/ha): 30
Surinam Grass plant response rating (0 to 100 scale) (Surinam grass; 125 g ai/ha): 10
Plant response rating, Surinam Grass (Surinam grass; 500 g ai/ha): 50
Surinam Grass plant response rating (Surinam grass; 125 g ai/ha): 20
Surinam Grass plant response rating (Surinam grass; 500 g ai/ha): 20
Cocklebur plant response rating (0 to 100 scale) (cocklebur; 125 g ai/ha): 0
Plant response rating, Cocklebur (cocklebur; 500 g ai/ha): 20
Cocklebur plant response rating (cocklebur; 125 g ai/ha): 60
Cocklebur plant response rating (cocklebur; 500 g ai/ha): 90
Corn plant response rating (0 to 100 scale) (corn; 125 g ai/ha): 0
Plant response rating, Corn (corn; 500 g ai/ha): 40
Corn plant response rating (corn; 125 g ai/ha): 20
Corn plant response rating (corn; 500 g ai/ha): 70
Crabgrass, Large plant response rating (0 to 100 scale) (large crabgrass; 125 g ai/ha): 80
Plant response rating, Crabgrass, Large (large crabgrass; 500 g ai/ha): 100
Crabgrass, Large plant response rating (large crabgrass; 125 g ai/ha): 10
Crabgrass, Large plant response rating (large crabgrass; 500 g ai/ha): 20
Foxtail, Giant plant response rating (0 to 100 scale) (giant foxtail; 125 g ai/ha): 20
Plant response rating, Foxtail, Giant (giant foxtail; 500 g ai/ha): 100
Foxtail, Giant plant response rating (giant foxtail; 125 g ai/ha): 20
Foxtail, Giant plant response rating (giant foxtail; 500 g ai/ha): 30
Lambsquarters plant response rating (0 to 100 scale) (lambsquarters; 125 g ai/ha): 100
Plant response rating, Lambsquarters (lambsquarters; 500 g ai/ha): 100
Lambsquarters plant response rating (lambsquarters; 125 g ai/ha): 70
Lambsquarters plant response rating (lambsquarters; 500 g ai/ha): 70
Morningglory plant response rating (0 to 100 scale) (morningglory; 125 g ai/ha): 10
Plant response rating, Morningglory (morningglory; 500 g ai/ha): 80
Morningglory plant response rating (morningglory; 125 g ai/ha): 60
Morningglory plant response rating (morningglory; 500 g ai/ha): 80
Pigweed plant response rating (0 to 100 scale) (pigweed; 125 g ai/ha): 90
Plant response rating, Pigweed (pigweed; 500 g ai/ha): 100
Pigweed plant response rating (pigweed; 125 g ai/ha): 50
Pigweed plant response rating (pigweed; 500 g ai/ha): 50
Blackgrass plant response rating (blackgrass; 125 g ai/ha): 0
Blackgrass plant response rating (blackgrass; 500 g ai/ha): 10
Wheat plant response rating (wheat; 125 g ai/ha): 0
Wheat plant response rating (wheat; 500 g ai/ha): 10
Oat, Wild plant response rating (wild oat; 125 g ai/ha): 20
Oat, Wild plant response rating (wild oat; 500 g ai/ha): 30
Rice plant response rating (rice): 20
Sedge, Umbrella plant response rating [2]: 70
Ducksalad plant response rating (ducksalad): 70
Barnyardgrass plant response rating (barnyardgrass [3]): 20

C=CCNC(=O)c1cccc(NC(=O)c2sc(C(C)(C)C)nc2CC)c1 [Compound 207]
Barnyardgrass plant response rating (0 to 100 scale) (barnyardgrass [1]; 125 g ai/ha): 80
Plant response rating, Barnyardgrass (barnyardgrass [1]; 500 g ai/ha): 90
Barnyardgrass plant response rating (barnyardgrass [1]; 125 g ai/ha): 20
Barnyardgrass plant response rating (barnyardgrass [1]; 500 g ai/ha): 20
Surinam Grass plant response rating (0 to 100 scale) (Surinam grass; 125 g ai/ha): 40
Plant response rating, Surinam Grass (Surinam grass; 500 g ai/ha): 60
Surinam Grass plant response rating (Surinam grass; 125 g ai/ha): 20
Surinam Grass plant response rating (Surinam grass; 500 g ai/ha): 20
Cocklebur plant response rating (0 to 100 scale) (cocklebur; 125 g ai/ha): 10
Plant response rating, Cocklebur (cocklebur; 500 g ai/ha): 20
Cocklebur plant response rating (cocklebur; 125 g ai/ha): 40
Cocklebur plant response rating (cocklebur; 500 g ai/ha): 80
Corn plant response rating (0 to 100 scale) (corn; 125 g ai/ha): 10
Plant response rating, Corn (corn; 500 g ai/ha): 50
Corn plant response rating (corn; 125 g ai/ha): 20
Corn plant response rating (corn; 500 g ai/ha): 20
Crabgrass, Large plant response rating (0 to 100 scale) (large crabgrass; 125 g ai/ha): 70
Plant response rating, Crabgrass, Large (large crabgrass; 500 g ai/ha): 100
Crabgrass, Large plant response rating (large crabgrass; 125 g ai/ha): 20
Crabgrass, Large plant response rating (large crabgrass; 500 g ai/ha): 20
Foxtail, Giant plant response rating (0 to 100 scale) (giant foxtail; 125 g ai/ha): 50
Plant response rating, Foxtail, Giant (giant foxtail; 500 g ai/ha): 90
Foxtail, Giant plant response rating (giant foxtail; 125 g ai/ha): 20
Foxtail, Giant plant response rating (giant foxtail; 500 g ai/ha): 20
Lambsquarters plant response rating (0 to 100 scale) (lambsquarters; 125 g ai/ha): 80
Plant response rating, Lambsquarters (lambsquarters; 500 g ai/ha): 100
Lambsquarters plant response rating (lambsquarters; 125 g ai/ha): 50
Lambsquarters plant response rating (lambsquarters; 500 g ai/ha): 80
Morningglory plant response rating (0 to 100 scale) (morningglory; 125 g ai/ha): 20
Plant response rating, Morningglory (morningglory; 500 g ai/ha): 40
Morningglory plant response rating (morningglory; 125 g ai/ha): 10
Morningglory plant response rating (morningglory; 500 g ai/ha): 20
Pigweed plant response rating (0 to 100 scale) (pigweed; 125 g ai/ha): 90
Plant response rating, Pigweed (pigweed; 500 g ai/ha): 100
Pigweed plant response rating (pigweed; 125 g ai/ha): 30
Pigweed plant response rating (pigweed; 500 g ai/ha): 60
Blackgrass plant response rating (blackgrass; 125 g ai/ha): 0
Blackgrass plant response rating (blackgrass; 500 g ai/ha): 10
Wheat plant response rating (wheat; 125 g ai/ha): 20
Wheat plant response rating (wheat; 500 g ai/ha): 20
Oat, Wild plant response rating (wild oat; 125 g ai/ha): 20
Oat, Wild plant response rating (wild oat; 500 g ai/ha): 20
Rice plant response rating (rice): 60
Sedge, Umbrella plant response rating [2]: 80
Ducksalad plant response rating (ducksalad): 90
Barnyardgrass plant response rating (barnyardgrass [3]): 80
